Assay results: patent publication US9370764B2, “Compositions and particles containing cellulosic fibers and stabilized-and/or activated-urease inhibitors, as well as methods of making and using the same” (INTERNATIONAL PAPER COMPANY, priority 2007, dated 2016)

Experiment: On-shelf aging of PPDA treated pulp at room conditions
Type: physicochemical
Conditions: pulp treated with 400 ppm PPDA
Protocol: Bleached softwood pulps that were treated with 400 ppm PPDA was stored on shelf as dry pulp in ambient conditions for 18 weeks and 20 weeks. The aged pulp samples were then fluffed and tested for ammonia generation by bacteria as in Example 1.
Aging test was also conducted on-shelf in the bag at room conditions. The result was shown in Table 12, and plotted in FIG. 5 in log scale.

Structure (SMILES): NP(N)(=O)Oc1ccccc1 [PPDA, phenylphosphorodiamidate]
- PPDA remaining on the pulp (HPLC) (stored on shelf as dry pulp in ambient conditions for 18 weeks): trace amount
- PPDA remaining on the pulp (HPLC) (stored on shelf as dry pulp in ambient conditions for 20 weeks): no PPDA remaining
